Laboratory results taken from ChEMBL document CHEMBL1201862, “PubChem BioAssay data set” (2004).
Structures can show the parent of a compound that is named as a salt. The source made the active and inactive calls.

Key:
fMet-Leu-Phe receptor = target: T1, fMet-Leu-Phe receptor (Homo sapiens, UniProt P21462); experiment: FPR ligands, dose response (AID 519); format: functional
T1 sequence (P21462 whole entry): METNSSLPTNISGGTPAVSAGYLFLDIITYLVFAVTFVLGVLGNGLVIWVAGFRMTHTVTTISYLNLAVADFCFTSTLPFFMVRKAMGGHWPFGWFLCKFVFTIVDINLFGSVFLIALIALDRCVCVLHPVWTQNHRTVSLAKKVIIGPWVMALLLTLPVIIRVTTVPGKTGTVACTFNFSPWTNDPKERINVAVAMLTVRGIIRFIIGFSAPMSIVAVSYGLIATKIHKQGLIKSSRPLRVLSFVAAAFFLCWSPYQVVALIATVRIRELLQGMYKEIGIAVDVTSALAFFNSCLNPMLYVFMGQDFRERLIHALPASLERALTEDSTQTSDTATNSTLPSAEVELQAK

Cytochrome P450 2C19 = Cytochrome P450 2C19 (Homo sapiens, UniProt P33261); experiment: Cytochrome panel assay with activity outcomes. Panel member name: p450-cyp2c19 Compounds with AC50 equal or less than 10 uM are considered active; format: functional; details: read-out: AC50
[1] = ZM109 Env clade C HIV-1 fusion inhibitors, dose response, HeLa effector, CEM target cells, luciferase, cherry-pick (AID 652058); format: functional, cell-based
[2] = inhibitors of clade B AD8 Env fusion, dose response, cell-based, cherry-pick (AID 652062); format: functional;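 also: luciferase signal from cell-cell fusion driven by HIV-1 clade B AD8 Env; potency is for inhibitors of fusion seen as a drop in luminescence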
[3] = inhibitors of HIV Env-driven cell fusion, dose response, cherry-pick (AID 652057); format: functional, cell-based
[4] = CEM21 lymphoblast cell cytotoxicity, dose response, cytotoxicity control for viral fusion inhibitor project, CellTiter-Glo luminescence, cherry-picked (AID 652042); format: functional, cell-based;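 also: potency for signal decrease meaning cytotoxicity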
[5] = A2780 ovarian cancer cell cytotoxicity, dose response, cytotoxicity control, plate reader, dry powder samples (AID 743046); format: functional, cell-based
Paired box protein Pax-8 = Paired box protein Pax-8 (Homo sapiens, UniProt Q06710); experiment: inhibitors of PAX8-driven TPO luciferase reporter, dose response, RMG-I cells, cherry-pick (AID 687027); format: functional, cell-based;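 also: luciferase reporter driven by Pax8 target thyroperoxidase promoter measured by SteadyGlo luminescence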
[6] = cytotoxicity in OVCAR8 ovarian cancer cells, dose response, PAX8 project, cell-based, plate reader, dry powder samples (AID 743197); format: functional; details: OVCAR-8
[7] = NIH:OVCAR-3 ovarian cancer cell cytotoxicity, dose response, PAX8 inhibitor project, plate reader, dry powder samples (AID 743044); format: functional, cell-based
[8] = P. falciparum Dd2 growth inhibitors, dose response, SYBR Green, cherry-picked samples (AID 1159567); format: functional, cell-based
[9] = IOSE-T80 ovarian epithelial cell cytotoxicity, dose response, cytotoxicity control for PAX8 inhibitor project, plate reader, dry powder samples (AID 743045); format: functional, cell-based
[10] = HepG2 cell cytotoxicity, dose response, cytotoxicity control, cherry-picked samples (AID 1159577); format: functional, cell-based
[11] = IGROV1 ovarian cancer cell cytotoxicity, dose response, PAX8 inhibitor project, plate reader, dry powder samples (AID 743043); format: functional, cell-based; details: IGROV-1
[12] = target: T2, Fructose-bisphosphate aldolase (Mycobacterium tuberculosis, UniProt P9WQA3); experiment: Fluorescence-based biochemical high throughput dose response assay for inhibitors of the fructose-bisphosphate aldolase (FBA) of M. tuberculosis.; format: functional
T2 sequence (P9WQA3 whole entry): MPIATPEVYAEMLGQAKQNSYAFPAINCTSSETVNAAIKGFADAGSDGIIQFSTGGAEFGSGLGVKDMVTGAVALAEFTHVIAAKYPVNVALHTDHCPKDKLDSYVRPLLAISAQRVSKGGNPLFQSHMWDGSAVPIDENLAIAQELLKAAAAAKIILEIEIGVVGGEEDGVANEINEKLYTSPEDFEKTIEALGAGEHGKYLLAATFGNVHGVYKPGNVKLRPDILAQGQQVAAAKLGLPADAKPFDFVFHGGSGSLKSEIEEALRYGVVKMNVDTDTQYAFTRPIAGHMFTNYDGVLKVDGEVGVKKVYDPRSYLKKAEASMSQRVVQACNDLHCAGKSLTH

[13] = Artemis endonuclease inhibitor potency, dose response, biochemical, fluorescence intensity (AID 720701); format: functional;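 also: Artemis endonuclease enzyme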
[14] = target: T3, RNA-editing ligase 1, mitochondrial (Trypanosoma brucei brucei, UniProt P86926); experiment: TbREL1 ligase inhibitors, dose response, biochemical, fluorescence, Trypanosoma brucei (AID 1117295); format: functional
T3 sequence (P86926 whole entry): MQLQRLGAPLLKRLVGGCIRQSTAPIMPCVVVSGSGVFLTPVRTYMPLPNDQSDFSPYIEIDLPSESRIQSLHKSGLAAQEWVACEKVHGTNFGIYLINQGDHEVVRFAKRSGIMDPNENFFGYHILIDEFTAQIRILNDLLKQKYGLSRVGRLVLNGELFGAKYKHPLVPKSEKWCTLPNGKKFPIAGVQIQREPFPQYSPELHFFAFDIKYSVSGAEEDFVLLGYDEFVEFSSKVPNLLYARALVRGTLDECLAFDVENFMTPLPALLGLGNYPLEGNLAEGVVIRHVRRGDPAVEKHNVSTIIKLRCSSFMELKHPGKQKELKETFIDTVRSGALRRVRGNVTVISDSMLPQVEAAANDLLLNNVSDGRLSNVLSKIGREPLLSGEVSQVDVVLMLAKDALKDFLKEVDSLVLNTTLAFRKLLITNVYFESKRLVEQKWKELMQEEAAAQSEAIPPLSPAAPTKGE

[15] = Dose-response inhibition of insulin secretion in a rat insulinoma line at 5 mM glucose (AID 1117331); format: functional, cell-based; details: INS-1E
[16] = HeLa 4N DNA content increase, dose response, cell-based, IC50 (AID 1117351); format: functional
cells = format: functional, cell-based; details: INS-1E
[17] = HeLa 2N DNA content increase, dose response, cell-based, IC50 (AID 1117349); format: functional
Cytochrome P450 1A2 = target: T4, Cytochrome P450 1A2 (Homo sapiens, UniProt P05177);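 also: PubChem cytochrome P450 panel assay, CYP1A2 panel member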
T4 sequence (P05177 whole entry): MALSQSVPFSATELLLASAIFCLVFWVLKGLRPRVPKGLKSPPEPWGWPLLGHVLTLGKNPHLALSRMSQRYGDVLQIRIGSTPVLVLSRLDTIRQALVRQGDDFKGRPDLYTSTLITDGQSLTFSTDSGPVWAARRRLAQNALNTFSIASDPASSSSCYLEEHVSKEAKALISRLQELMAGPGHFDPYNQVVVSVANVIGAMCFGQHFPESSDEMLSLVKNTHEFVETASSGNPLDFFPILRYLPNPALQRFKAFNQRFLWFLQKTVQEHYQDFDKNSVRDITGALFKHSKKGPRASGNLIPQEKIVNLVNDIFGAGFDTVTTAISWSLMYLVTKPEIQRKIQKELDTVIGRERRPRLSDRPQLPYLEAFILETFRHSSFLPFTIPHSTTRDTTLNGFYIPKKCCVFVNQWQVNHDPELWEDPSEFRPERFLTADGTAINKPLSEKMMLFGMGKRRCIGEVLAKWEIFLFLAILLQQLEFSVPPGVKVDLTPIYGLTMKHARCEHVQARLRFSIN

Chain of Paired box protein Pax-8 (Q06710 whole entry): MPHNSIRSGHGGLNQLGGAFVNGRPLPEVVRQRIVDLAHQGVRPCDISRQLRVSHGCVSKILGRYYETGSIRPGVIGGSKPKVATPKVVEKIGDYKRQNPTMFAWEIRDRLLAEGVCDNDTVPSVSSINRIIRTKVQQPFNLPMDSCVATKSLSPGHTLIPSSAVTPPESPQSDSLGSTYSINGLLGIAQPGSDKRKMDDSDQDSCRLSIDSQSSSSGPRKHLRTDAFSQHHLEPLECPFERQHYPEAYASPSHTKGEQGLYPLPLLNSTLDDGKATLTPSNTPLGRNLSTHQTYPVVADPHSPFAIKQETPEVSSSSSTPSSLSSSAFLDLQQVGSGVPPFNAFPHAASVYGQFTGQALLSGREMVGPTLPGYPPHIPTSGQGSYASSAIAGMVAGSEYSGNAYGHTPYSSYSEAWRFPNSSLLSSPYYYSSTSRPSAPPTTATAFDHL
Chain of Cytochrome P450 2C19 (P33261 whole entry, the tested form may be a part): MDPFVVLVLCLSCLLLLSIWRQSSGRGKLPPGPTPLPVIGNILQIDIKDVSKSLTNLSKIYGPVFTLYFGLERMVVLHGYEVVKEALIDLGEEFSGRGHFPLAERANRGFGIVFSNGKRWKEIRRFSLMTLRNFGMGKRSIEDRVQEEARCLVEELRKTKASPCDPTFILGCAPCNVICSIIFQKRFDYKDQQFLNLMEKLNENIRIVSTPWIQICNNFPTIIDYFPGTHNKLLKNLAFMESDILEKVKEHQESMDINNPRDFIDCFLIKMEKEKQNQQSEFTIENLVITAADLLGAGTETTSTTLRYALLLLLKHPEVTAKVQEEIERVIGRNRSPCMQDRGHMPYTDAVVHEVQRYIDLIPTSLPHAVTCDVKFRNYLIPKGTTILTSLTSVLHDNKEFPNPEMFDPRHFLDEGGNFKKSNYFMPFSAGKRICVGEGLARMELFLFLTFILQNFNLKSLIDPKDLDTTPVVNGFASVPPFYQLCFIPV

COc1ccc(C2C(C(=O)c3ccccc3)=C(O)C(=O)N2CC(C)O)c(OC)c1 (stereo not drawn)
Ki (fMet-Leu-Phe receptor): 38.6 µM (inactive) | AC50 (Cytochrome P450 2C19): 6.31 µM (inconclusive)

COc1cccc(S(=O)(=O)N(C)C[C@H]2Oc3cc(C4=CCCC4)ccc3S(=O)(=O)N([C@@H](C)CO)C[C@H]2C)c1
AC50 [1]: 1.62 µM (active) | AC50 [2]: 3.01 µM (active) | AC50 [3]: 1.87 µM (active) | AC50 [4]: 64.2 µM (active)

C[C@@H]1CCCCO[C@H](CN(C)C(=O)C2CCCCC2)[C@H](C)CN([C@@H](C)CO)C(=O)c2cc(NS(=O)(=O)c3ccc(Cl)cc3)ccc2O1
AC50 [5]: 43.4 µM (active) | AC50 (Paired box protein Pax-8): 10.8 µM (active) | AC50 [6]: 56.9 µM (active) | AC50 [7]: 45.3 µM (active)

O=C(Nc1ccc(F)cc1)N1CCCCN2[C@@H](CO)[C@@H](c3ccc(C#Cc4ccccc4)cc3)[C@@H]2C1
AC50 [8]: 2.61 µM (active) | AC50 [9]: 55.1 µM (active) | AC50 [10]: 7.97 µM (active) | AC50 (Paired box protein Pax-8): 18.7 µM (active) | AC50 [11]: 21 µM (active) | AC50 [7]: 19.2 µM (active)

COc1ccc2c(CN3CCCC3)cc(=O)oc2c1
IC50 [12]: 2.52 µM (active)

O=[N+]([O-])c1ccccc1/C=C/C=N/n1c(S)nnc1-c1ccc(Cl)cc1
IC50 [13]: > 20 µM (inactive)

CN(C)CC(=O)N1C[C@@H]2N[C@H](C1)[C@H]2c1ccc(/C=C/c2ccccc2)cc1
AC50 [8]: 2.63 µM (active) | AC50 [10]: 11.4 µM (active)

COC(=O)C1=C(C)N(Cc2ccc(C(F)(F)F)cc2)C(NCc2ccccc2C(F)(F)F)=NC1c1ccccc1C(F)(F)F (stereo not drawn)
IC50 [14]: > 96.6 µM (inactive)

COC(=O)C1=C(C)N(Cc2ccc(C(F)(F)F)cc2)C(NCc2ccccc2C(F)(F)F)=NC1c1ccccc1 (stereo not drawn)
IC50 [14]: > 96.6 µM (inactive)

COCC(=O)N1CCC2(CC1)CN(Cc1ccccc1F)[C@H](CO)c1[nH]c3cc(OC)ccc3c12
AC50 [8]: 7.02 µM (active) | AC50 [10]: > 39 µM (inactive)

CN(C)CCC=C1c2ccccc2CCc2ccccc21 [AMITRIPTYLINE HYDROCHLORIDE]
IC50 [15]: 3 µM (active) | IC50 [16]: > 10 µM (inactive) | IC50 (cells): > 33.3 µM (inactive) | IC50 [17]: > 10 µM (inactive)

CN(C)CCN(Cc1ccc(Cl)cc1)c1ccccn1 [CHLOROPYRAMINE]
IC50 [15]: 6.14 µM (inactive) | IC50 (cells): 16.8 µM (inactive) | AC50 (Cytochrome P450 1A2): 12.6 µM (inconclusive)

CCCCN1CCCC[C@H]1C(=O)Nc1c(C)cccc1C [LEVOBUPIVACAINE HYDROCHLORIDE]
IC50 [15]: 27.2 µM (inactive) | IC50 (cells): > 33.3 µM (inactive)
